Data published in patent US20040081964A1, “Gene and sequence variation associated with sensing carbohydrate compounds and other sweeteners” (priority 2002, published 2004).
Where two headings read alike, the source gives them in different places.

How the values were obtained:
[1] = test system: mouse strains with 'B6-like' or '129-like' haplotype of Gpr98
Source text: (§1) Preferences for 10% ethanol for the same mouse strains were studied as described in Abstr. of the 23th RSA Meeting (June 2000, Denver, Colo.).

129.B6-Sac congenic mice = test system: 129.B6-Sac congenic mice
Source text: as §1

[2] = test system: mice from inbred strains with two different haplotypes of the Sac gene; details: strain preferences known from Lush et al., cited from earlier work
[3] = strains with the 129-like haplotype of Sac, p=0.0015 vs B6-like
[4] = strains with the B6-like haplotype of Sac

SMILES | preference for 10% ethanol ([1]; strains with the '129-like' haplotype, n=10 strains, p<0.05, one-tailed t-test) | preference for 10% ethanol ([1]; strains with the 'B6-like' haplotype, n=14 strains) | consumption of 10% ethanol solution (129.B6-Sac congenic mice; congenic mice homozygous for the 194-kb donor fragment from the B6 strain) | consumption of 10% ethanol solution (129.B6-Sac congenic mice; congenic mice without the donor fragment, p<0.05, one-tailed t-test) | sweetener preference [2, 3] | sweetener preference [2, 4]
CCO [ethanol] | 12±2% | 20±4% | 1.50 ± 0.15 mL/day | 1.19 ± 0.11 mL/day | – | –
O=C1NS(=O)(=O)c2ccccc21 [saccharin] | – | – | – | – | 57±2% | 82±4%
OC[C@H]1O[C@@](CO)(O[C@H]2O[C@H](CO)[C@@H](O)[C@H](O)[C@H]2O)[C@@H](O)[C@@H]1O [sucrose] | – | – | – | – | 54±1% | 86±6%
